Reference: patent US9549912B2, “Methods for treating atrial fibrillation” (Armetheon, Inc., priority 2009, dated 2017)
Where two headings read alike, the source gives them in different places.

Columns and labels:
[1] = Electrophysiological activity in animals: atrial refractoriness, metabolite activity; type: in vivo; conditions: in vivo
P-glycoprotein (P-gp) = P-glycoprotein (P-gp) (Homo sapiens, UniProt P08183); conditions: cited from earlier work
[2] = cited from earlier work
[3] = 2 years; 8 for the placebo; cited from earlier work
AF patients = conditions: followed for a year, versus placebo; cited from earlier work
[4] = Phase 2 clinical trial of tecarfarin: time in therapeutic INR range versus warfarin; type: in vivo, human; conditions: for proportion of time with INR below 1.5 / proportion of time with INR between 1.5 and 1.9: human, in vivo; for time in therapeutic range (TTR), INR between 2.0 and 3.0: same patient population, previously on warfarin
patients with AF = conditions: cited from earlier work

P-glycoprotein (P-gp), sequence (P08183 whole entry): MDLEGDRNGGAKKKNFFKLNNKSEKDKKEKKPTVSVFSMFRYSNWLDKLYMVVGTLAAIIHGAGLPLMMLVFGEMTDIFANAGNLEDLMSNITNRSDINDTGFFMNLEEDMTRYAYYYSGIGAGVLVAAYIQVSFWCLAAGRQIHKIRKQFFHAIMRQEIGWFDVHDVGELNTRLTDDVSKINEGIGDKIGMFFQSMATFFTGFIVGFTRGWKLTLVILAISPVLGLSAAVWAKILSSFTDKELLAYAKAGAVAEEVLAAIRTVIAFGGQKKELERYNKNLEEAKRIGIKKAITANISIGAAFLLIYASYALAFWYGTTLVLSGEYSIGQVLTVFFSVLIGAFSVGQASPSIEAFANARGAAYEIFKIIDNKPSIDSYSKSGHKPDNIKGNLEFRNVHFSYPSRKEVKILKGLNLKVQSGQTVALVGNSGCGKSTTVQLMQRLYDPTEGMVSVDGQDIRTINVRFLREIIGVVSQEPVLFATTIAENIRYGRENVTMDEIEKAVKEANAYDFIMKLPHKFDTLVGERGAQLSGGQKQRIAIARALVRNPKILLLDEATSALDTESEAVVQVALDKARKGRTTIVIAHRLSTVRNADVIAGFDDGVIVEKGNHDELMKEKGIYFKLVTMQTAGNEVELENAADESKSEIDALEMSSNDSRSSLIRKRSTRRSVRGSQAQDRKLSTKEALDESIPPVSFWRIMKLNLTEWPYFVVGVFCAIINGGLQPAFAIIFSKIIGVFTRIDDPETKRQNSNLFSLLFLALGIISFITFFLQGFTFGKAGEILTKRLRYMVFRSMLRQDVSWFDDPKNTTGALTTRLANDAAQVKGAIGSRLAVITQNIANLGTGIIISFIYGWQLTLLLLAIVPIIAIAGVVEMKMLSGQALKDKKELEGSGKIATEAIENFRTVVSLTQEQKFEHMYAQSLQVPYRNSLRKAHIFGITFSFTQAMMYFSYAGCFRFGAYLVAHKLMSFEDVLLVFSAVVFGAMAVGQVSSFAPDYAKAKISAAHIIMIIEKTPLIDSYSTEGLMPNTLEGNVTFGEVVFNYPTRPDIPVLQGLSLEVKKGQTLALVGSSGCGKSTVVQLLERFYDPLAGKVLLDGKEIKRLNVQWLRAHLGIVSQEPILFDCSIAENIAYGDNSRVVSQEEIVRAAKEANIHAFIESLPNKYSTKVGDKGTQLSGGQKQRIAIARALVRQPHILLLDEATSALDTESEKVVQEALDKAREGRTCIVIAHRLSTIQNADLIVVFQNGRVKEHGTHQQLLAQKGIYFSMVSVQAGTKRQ

SMILES: CCN(CC)CCOc1c(I)cc(C(=O)c2c(CC(=O)O)oc3ccccc23)cc1I [ATI-2000]
- electrophysiological activity [1]: electrophysiologically inactive

SMILES: [H]/N=C(/N)c1ccc(NCc2nc3cc(C(=O)N(CCC(=O)O)c4ccccn4)ccc3n2C)cc1 [dabigatran]
- P-gp substrate status (P-glycoprotein (P-gp)): substrate
- major bleeding versus warfarin ([2]; 110 mg): superior
- major bleeding versus warfarin ([2]; 150 mg): noninferior

SMILES: CCCCc1oc2ccc(NS(C)(=O)=O)cc2c1C(=O)c1ccc(OCCCN(CCCC)CCCC)cc1 [dronedarone]
- number of strokes in patients with only AF or atrial flutter on all ECGs [3]: 2
- time to first recurrence of AF (TTFR) (AF patients): significant increase in TTFR compared to placebo

SMILES: C=C[C@H]1C[N@@]2CC[C@H]1C[C@@H]2[C@@H](O)c1ccnc2ccc(OC)cc12 [quinidine]
- P-gp inhibition (P-glycoprotein (P-gp)): particularly potent P-gp inhibitor

SMILES: CC(OC(=O)c1ccc(Cc2c(O)c3ccccc3oc2=O)cc1)(C(F)(F)F)C(F)(F)F [tecarfarin]
- proportion of time with INR below 1.5 [4]: 1.2%
- proportion of time with INR between 1.5 and 1.9 [4]: 14.2%
- time in therapeutic range (TTR), INR between 2.0 and 3.0 [4]: 71.5%

SMILES: CC(=O)CC(c1ccccc1)c1c(O)c2ccccc2oc1=O (centres unmarked) [warfarin]
- proportion of time with INR below 1.5 [4]: 3.9%
- proportion of time with INR between 1.5 and 1.9 [4]: 22.4%
- time in therapeutic range (TTR), INR between 2.0 and 3.0 [4]: 59.3%
- strokes prevented (patients with AF): 64%
